Test results as given in article PMC8398766, “Do Small Molecules Activate the TrkB Receptor in the Same Manner as BDNF? Limitations of Published TrkB Low Molecular Agonists and Screening for Novel TrkB Orthosteric Agonists” (Pharmaceuticals, 2021).
“Also recorded” adds a separate entry of the source. Read-outs that look alike come from different tables or passages of the source. One block for each molecule: values may come before it.

Tests used:
[1] = system: TrkB and downstream proteins (PLCγ1, Akt1, ERK1/2); assay: Downstream signaling immunoblot, RA-differentiated SH-SY5Y cell line; assay type: cell-based; settings: for Phosphorylation of TrkB and downstream proteins (PLCγ1, Akt1, ERK1/2): RA-differentiated SH-SY5Y, 1, 10, 100 μM, 15 min
Description: The SH-SY5Y cell line was purchased from MilliporeSigma and cultured in growth medium: MEM (w/Earle’s Salts; w/L-Glutamine) + Ham’s F12 (w/L-Glutamine) (1:1 v/v), 1 × Antibiotic-Antimycotic, 1 × MEM Non-Essential Amino Acids (all reagents from Biowest, Riverside, MO, USA) and 15% FBS (Gibco, Thermo Fisher Scientific, Waltham, MA, USA). Cells were passaged using 0.25% Trypsin-EDTA (Biowest) and cultured in standard conditions (5% CO2, 37 °C with 95% relative humidity).
To differentiate SH-SY5Y, cells were seeded in a cell culture flask at a density of 10,000 cells/cm^2 in standard growth medium containing 10 μM retinoic acid (RA; MilliporeSigma) and cultured for 7 consecutive days. Then, differentiated cells were harvested by trypsinization (Trypsin-EDTA 1×, 3 min at 37 °C), centrifuged (250× g; 5 min at 25 °C) and counted. The desired experiment cells were seeded in differentiation medium (MEM:Ham’s F12 growth medium +10 μM RA) in multi-well plates at the following densities: 1,000,000 cells/well on a 6-well plate for lysate collection and immunoblot analysis, and 12,000 cells/well into a PDL-treated 96-well plate (BioCoat™, Corning Inc.) for neuroprotection experiments.
On the day of the experiments, cells were starved for 5 h with appropriate culture medium. SN56 T48 cells were treated with reference compounds at 100 μM or 1, 10, or 100 μM concentrations of the selected molecules, and 1, 10, and 100 ng/mL of BDNF. Differentiated SH-SY5Y cells were treated with 1, 10, or 100 μM concentrations of the tested molecules and 1, 10, and 100 ng/mL of BDNF for 15 min. For compound specificity, the evaluation cell lines were first pretreated with 1 μM K252a (MilliporeSigma, Saint Louis, MO, USA) for 15 min and then cotreated with 100 μM concentrations of the tested molecules.
Compound treatment was stopped by lysing cells with N-PER™ Neuronal Protein Extraction Reagent (Thermo Fisher Scientific) containing 1 × PhosSTOP™ (Roche, Basel, Switzerland), 1 × Halt Protease Inhibitor Single-Use Cocktail (ThermoFisher Scientific) and 5 mM EDTA. The lysates were collected by scraping, and centrifuged (8000× g; 10 min at 4 °C), and the protein concentration was determined using a BCA Pierce kit (ThermoFisher Scientific). The lysates were stored at −80 °C until further processing. Samples containing 20 μg of protein were further denatured in 4 × Laemli Buffer with 5% β-mercaptoethanol at 95 °C for 5 min and electrophoresed on gels prepared using a 10% TGX Stain-Free™ FastCast™ Acrylamide Kit (Bio-Rad). Afterwards, the proteins were transferred (wet transfer, 100 V, 60 min) onto nitrocellulose membranes (GE Healthcare, Chicago, IL, USA), which were blocked in 5% BSA in TBS-T (TBS + 0.1% Tween20) for 2 h. […] After repeated washes (TBS-T), the proteins were detected with HRP-conjugated anti-rabbit antibodies (1:4000, RT, 2 h) (Cell Signaling Technology), and the blots were incubated with Clarity Max ECL Western Blotting Substrate (Bio-Rad). Blot images and chemiluminescence signals were captured using a ChemiDoc MP Imaging System, and densitometry values were calculated using the Image Lab software (Bio-Rad). […]

A1 = molecular target: T1, A1 (Homo sapiens, UniProt P30542); assay: BioPrint Profile Panel; settings: Agonist, Receptor, read-out: % Inhibition of Control Specific Binding
T1 construct: purchased Eurofins Discovery (Cerep) BioPrint Profile Panel
Text: (§1) The BioPrint® Profile Panel service offered by Eurofins Discovery (Poitiers, France) was chosen to perform selectivity analysis.

5-HT3 = molecular target: T2, 5-HT3 (Homo sapiens, UniProt P46098); assay: BioPrint Profile Panel; assay type: binding; settings: Antagonist, Ion Channel, read-out: % of specific inhibition
T2 construct: purchased Eurofins Discovery (Cerep) BioPrint Profile Panel
Text: as §1

5-HT6 = molecular target: T3, 5-HT6 (Homo sapiens, UniProt P50406); assay: BioPrint Profile Panel; assay type: binding; settings: Agonist, Receptor, read-out: % of specific inhibition
T3 construct: purchased Eurofins Discovery (Cerep) BioPrint Profile Panel
Text: as §1

A2A = molecular target: T4, A2A (Homo sapiens, UniProt P29274); assay: BioPrint Profile Panel; assay type: binding; settings: Agonist, Receptor
T4 construct: purchased Eurofins Discovery (Cerep) BioPrint Profile Panel
Text: as §1

[2] = system: Ca2+ channel (verapamil site); assay: BioPrint Profile Panel; assay type: binding; settings: 10 μM; Antagonist (verapamil site); Ion Channel
Text: as §1

GABAB(1b) = molecular target: T5, GABAB(1b) (Homo sapiens, UniProt Q9UBS5); assay: BioPrint Profile Panel; assay type: binding; settings: Antagonist, Receptor, read-out: % of specific inhibition
T5 construct: purchased Eurofins Discovery (Cerep) BioPrint Profile Panel
Text: as §1

dopamine transporter = molecular target: T6, dopamine transporter (Homo sapiens, UniProt Q01959); assay: BioPrint Profile Panel; assay type: binding; settings: Antagonist, read-out: % of specific inhibition
T6 construct: purchased Eurofins Discovery (Cerep) BioPrint Profile Panel
Text: as §1

kappa = assay: BioPrint Profile Panel; assay type: binding; settings: 10 μM; Agonist; Receptor
Text: as §1

sst4 = molecular target: T7, sst4 (Homo sapiens, UniProt P31391); assay: BioPrint Profile Panel; assay type: binding; settings: Agonist, Receptor, read-out: % of specific inhibition
T7 construct: purchased Eurofins Discovery (Cerep) BioPrint Profile Panel
Text: as §1

α1A = molecular target: T8, α1A (Homo sapiens, UniProt P35348); assay: BioPrint Profile Panel; assay type: binding; settings: Antagonist, Receptor, read-out: % of specific inhibition
T8 construct: purchased Eurofins Discovery (Cerep) BioPrint Profile Panel
Text: as §1

α2B = molecular target: T9, α2B (Homo sapiens, UniProt P18089); assay: BioPrint Profile Panel; assay type: binding; settings: Antagonist, Receptor, read-out: % of specific inhibition
T9 construct: purchased Eurofins Discovery (Cerep) BioPrint Profile Panel
Text: as §1

ẟ(DOP) = molecular target: T10, ẟ(DOP) (Homo sapiens, UniProt P41143); assay: BioPrint Profile Panel; assay type: binding; settings: Agonist, Receptor, read-out: % of specific inhibition
T10 construct: purchased Eurofins Discovery (Cerep) BioPrint Profile Panel
Text: as §1

TrkB = settings: cited from earlier work
[3] = Metabolic stability in human liver microsomes; settings: compared with verapamil
[4] = Metabolic stability in mouse liver microsomes; settings: compared with verapamil
TrkB receptor = molecular target: T11, TrkB receptor (Rattus norvegicus, UniProt Q63604); assay: ELFI TrkB phosphorylation, orthosteric agonist mode, SN56 T48 cell line; assay type: cell-based; settings: TrkB phosphorylation (Tyr706), 15 min
T11 construct: host or cells: SN56 T48 cell line

[5] = no orthosteric activity given as 0

T11 sequence (Q63604 32-821): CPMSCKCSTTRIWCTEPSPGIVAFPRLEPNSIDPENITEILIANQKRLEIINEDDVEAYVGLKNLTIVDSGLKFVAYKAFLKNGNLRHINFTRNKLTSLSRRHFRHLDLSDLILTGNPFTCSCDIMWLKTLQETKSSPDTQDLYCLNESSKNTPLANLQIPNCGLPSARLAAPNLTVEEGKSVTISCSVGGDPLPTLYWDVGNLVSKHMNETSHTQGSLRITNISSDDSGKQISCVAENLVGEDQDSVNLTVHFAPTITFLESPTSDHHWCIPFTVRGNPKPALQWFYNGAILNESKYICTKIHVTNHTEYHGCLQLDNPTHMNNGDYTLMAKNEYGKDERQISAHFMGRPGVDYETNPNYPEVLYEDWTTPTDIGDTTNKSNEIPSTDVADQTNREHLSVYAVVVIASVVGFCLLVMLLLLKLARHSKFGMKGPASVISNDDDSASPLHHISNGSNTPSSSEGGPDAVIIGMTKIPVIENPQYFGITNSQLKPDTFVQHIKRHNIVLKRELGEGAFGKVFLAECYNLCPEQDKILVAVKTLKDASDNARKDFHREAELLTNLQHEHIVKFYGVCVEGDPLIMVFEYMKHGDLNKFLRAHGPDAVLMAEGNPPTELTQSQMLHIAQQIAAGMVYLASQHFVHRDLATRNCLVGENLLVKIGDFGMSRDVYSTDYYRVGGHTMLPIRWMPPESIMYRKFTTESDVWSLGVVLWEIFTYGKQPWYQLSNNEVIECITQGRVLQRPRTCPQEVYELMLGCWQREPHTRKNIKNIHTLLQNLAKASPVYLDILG
T4 sequence (P29274 whole entry): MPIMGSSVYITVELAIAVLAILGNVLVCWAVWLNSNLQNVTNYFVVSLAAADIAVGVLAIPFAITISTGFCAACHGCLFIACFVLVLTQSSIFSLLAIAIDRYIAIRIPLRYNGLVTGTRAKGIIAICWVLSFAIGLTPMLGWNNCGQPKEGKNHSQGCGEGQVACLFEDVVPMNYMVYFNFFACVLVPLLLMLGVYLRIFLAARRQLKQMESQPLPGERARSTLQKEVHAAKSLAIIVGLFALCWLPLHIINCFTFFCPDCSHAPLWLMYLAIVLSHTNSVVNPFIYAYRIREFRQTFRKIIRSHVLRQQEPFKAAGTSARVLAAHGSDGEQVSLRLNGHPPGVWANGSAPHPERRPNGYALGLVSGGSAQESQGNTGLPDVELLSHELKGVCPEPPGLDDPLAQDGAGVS
T3 sequence (P50406 whole entry): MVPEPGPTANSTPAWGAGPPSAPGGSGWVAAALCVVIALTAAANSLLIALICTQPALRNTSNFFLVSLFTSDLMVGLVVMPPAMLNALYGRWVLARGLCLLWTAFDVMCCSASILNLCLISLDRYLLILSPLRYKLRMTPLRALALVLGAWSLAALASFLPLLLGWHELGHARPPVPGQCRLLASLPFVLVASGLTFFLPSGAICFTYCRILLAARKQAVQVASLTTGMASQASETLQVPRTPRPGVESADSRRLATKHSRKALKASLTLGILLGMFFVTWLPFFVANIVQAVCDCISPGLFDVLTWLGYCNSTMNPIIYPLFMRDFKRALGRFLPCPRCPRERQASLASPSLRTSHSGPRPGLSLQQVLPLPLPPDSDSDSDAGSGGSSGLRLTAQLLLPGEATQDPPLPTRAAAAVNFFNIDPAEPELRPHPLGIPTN
T1 sequence (P30542 whole entry): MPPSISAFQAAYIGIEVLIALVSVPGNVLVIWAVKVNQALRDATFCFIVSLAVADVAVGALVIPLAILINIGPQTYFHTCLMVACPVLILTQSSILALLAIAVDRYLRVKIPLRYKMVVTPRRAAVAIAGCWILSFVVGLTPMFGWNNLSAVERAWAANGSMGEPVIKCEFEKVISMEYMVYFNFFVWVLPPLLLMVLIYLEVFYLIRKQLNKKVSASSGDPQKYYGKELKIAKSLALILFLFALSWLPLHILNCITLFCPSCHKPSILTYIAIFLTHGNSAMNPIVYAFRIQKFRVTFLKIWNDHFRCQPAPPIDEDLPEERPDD
T7 sequence (P31391 whole entry): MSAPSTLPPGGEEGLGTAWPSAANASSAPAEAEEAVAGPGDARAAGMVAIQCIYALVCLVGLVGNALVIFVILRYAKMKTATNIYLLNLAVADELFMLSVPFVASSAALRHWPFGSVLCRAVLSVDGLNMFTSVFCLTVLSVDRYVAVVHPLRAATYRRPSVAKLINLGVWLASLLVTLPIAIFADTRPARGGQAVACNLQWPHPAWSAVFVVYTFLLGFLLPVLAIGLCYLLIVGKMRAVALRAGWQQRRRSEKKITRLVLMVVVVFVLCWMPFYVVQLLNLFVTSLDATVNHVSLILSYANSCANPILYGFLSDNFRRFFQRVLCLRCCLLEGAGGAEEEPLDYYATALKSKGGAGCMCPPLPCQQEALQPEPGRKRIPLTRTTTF
T9 sequence (P18089 whole entry): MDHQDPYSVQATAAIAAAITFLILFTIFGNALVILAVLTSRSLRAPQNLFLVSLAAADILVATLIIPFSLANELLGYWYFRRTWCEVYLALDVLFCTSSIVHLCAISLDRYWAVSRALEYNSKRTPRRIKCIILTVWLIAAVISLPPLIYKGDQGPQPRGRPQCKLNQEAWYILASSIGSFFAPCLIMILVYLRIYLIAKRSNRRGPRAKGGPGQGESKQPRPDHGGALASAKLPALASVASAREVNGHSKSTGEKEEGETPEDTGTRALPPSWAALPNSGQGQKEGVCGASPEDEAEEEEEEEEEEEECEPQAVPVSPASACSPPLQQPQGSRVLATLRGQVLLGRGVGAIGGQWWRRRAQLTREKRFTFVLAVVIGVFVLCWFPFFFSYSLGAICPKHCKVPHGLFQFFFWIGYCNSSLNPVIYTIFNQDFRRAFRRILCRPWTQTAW
T10 sequence (P41143 whole entry): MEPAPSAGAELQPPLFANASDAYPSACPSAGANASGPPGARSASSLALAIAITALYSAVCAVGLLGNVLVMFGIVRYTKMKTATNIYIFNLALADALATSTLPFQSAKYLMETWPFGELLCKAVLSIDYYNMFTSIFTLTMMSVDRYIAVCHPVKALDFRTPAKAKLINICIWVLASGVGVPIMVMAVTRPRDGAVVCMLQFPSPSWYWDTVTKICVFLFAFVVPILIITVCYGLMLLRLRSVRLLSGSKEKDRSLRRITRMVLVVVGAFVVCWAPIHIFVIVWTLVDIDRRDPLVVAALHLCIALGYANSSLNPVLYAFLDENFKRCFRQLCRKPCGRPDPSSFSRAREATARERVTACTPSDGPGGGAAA
T6 sequence (Q01959 whole entry): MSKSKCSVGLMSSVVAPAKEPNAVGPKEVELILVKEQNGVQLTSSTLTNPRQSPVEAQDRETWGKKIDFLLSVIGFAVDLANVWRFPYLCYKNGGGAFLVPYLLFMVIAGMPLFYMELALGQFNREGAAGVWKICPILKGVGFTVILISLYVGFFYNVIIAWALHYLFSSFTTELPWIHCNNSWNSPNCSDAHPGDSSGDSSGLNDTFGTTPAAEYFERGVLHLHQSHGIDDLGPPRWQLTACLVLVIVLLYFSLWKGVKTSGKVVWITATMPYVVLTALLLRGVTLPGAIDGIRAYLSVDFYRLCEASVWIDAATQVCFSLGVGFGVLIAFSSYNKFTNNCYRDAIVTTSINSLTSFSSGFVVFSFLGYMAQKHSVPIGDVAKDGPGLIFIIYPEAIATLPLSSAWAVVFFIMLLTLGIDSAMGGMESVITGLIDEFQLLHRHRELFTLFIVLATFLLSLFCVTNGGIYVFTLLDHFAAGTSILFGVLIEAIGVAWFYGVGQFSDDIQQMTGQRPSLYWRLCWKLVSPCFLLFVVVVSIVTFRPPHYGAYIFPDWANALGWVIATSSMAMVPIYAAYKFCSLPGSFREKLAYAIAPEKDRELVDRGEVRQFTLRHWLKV
T2 sequence (P46098 24-478): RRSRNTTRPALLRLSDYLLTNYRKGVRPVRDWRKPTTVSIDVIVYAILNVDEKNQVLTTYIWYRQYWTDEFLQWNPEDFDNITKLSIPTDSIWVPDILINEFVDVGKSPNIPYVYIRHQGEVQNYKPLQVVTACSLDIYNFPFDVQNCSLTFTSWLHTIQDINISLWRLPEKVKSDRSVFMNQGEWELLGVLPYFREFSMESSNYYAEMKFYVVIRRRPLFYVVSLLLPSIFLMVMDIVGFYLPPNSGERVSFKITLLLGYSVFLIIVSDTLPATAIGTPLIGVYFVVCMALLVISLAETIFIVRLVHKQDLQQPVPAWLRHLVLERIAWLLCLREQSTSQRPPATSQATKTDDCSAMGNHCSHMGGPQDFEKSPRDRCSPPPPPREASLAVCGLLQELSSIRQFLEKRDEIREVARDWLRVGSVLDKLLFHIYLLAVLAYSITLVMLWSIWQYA
T8 sequence (P35348 whole entry): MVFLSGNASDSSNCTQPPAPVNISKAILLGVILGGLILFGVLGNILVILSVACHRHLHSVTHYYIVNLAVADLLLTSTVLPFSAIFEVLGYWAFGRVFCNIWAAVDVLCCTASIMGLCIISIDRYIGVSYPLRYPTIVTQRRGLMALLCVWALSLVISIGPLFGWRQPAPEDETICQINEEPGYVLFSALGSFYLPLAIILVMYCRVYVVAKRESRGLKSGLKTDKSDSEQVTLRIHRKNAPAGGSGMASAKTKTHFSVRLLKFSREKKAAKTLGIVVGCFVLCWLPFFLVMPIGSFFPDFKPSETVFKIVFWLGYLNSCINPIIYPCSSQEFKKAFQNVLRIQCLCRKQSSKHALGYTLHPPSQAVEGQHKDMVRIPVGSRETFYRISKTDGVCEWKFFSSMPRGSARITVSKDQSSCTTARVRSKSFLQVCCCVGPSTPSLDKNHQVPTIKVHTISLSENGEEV

Molecule: O=c1cc(-c2ccccc2)oc2c(O)c(O)ccc12 [7,8-DHF, 7,8-dihydroxyflavone]
Phosphorylation of TrkB and downstream proteins (PLCγ1, Akt1, ERK1/2) [1]: did not result in the expected effect; also recorded: lack of 7,8-DHF activity
inhibition at 10 µM (A1): 99%
inhibition at 10 µM (5-HT3): -2%
inhibition at 10 µM (5-HT6): -3%
% Inhibition of Control Specific Binding (A2A; 10 μM): 74.9%
inhibition at 10 µM (A2A; read-out: % Inhibition of Control Specific Binding): 75%
% of specific inhibition [2]: 2%
inhibition at 10 µM (GABAB(1b)): -5%
inhibition at 10 µM (dopamine transporter): 4%
% of specific inhibition (kappa): 3%
inhibition at 10 µM (sst4): -23%
inhibition at 10 µM (α1A): 2%
inhibition at 10 µM (α2B): -2%
inhibition at 10 µM (ẟ(DOP)): -5%
Kd (TrkB; ref Jang et al. (2010) [12], read-out: Binding affinity): 15.4 nM
Kd (TrkB; ref Liu et al. (2014) [35], read-out: Binding affinity): 12.1 nM
Metabolic stability in HLM (classification) [3]: moderate degradation rate
Metabolic stability in MLM (classification) [4]: moderate degradation rate

Molecule: O=C1C(O)=C(c2c[nH]c3ccccc23)C(=O)C(O)=C1c1c[nH]c2ccccc12 [CPL503052, didemethylasterriquinone D]
Phosphorylation of TrkB and downstream proteins (PLCγ1, Akt1, ERK1/2) [1]: able to induce the phosphorylation of TrkB, Akt1, ERK1/2, and PLCγ1

EC50 (TrkB receptor; [5]): 5000 nM
Molecule: C=CC(C)(C)c1[nH]c2ccccc2c1C1=C(O)C(=O)C(c2c[nH]c3c(CC=C(C)C)cccc23)=C(O)C1=O [DMAQ-B1]
Effect of cotreatment with K252a on the compound's effects ([1]; K252a 1 μM): did not inhibit
Phosphorylation of TrkB and downstream proteins (PLCγ1, Akt1, ERK1/2) [1]: able to induce the phosphorylation of TrkB, Akt1, ERK1/2, and PLCγ1
Metabolic stability in HLM (classification) [3]: instability of this compound in the experimental system
Metabolic stability in MLM (classification) [4]: instability of this compound in the experimental system

EC50 (TrkB receptor): 3.7 nM
EC50 (TrkB receptor; [5]): 4 nM
B1: BDNF: Brain-derived neurotrophic factor, endogenous TrkB receptor agonist (protein, UniProt P23560 19-247, looked up)
Neurotrophic factor BDNF …: APMKEANIRGQGGLAYPGVRTHGTLESVNGPKAGSRGLTSLADTFEHVIEELLDEDQKVRPNEENNKDADLYTSRVMLSSQVPLEPPLLFLLEEYKNYLDAANMSMRVRRHSDPARRGELSVCDSISEWVTAADKKTAVDMSGGTVTVLEKVPVSKGQLKQYFYETKCNPMGYTKEGCRGIDKRHWNSQCRTTQSYVRALTMDSKKRIGWRFIRIDTSCVCTLTIKRGR
Phosphorylation of TrkB and downstream proteins (PLCγ1, Akt1, ERK1/2) [1]: induced the TrkB receptor and phosphorylation of downstream proteins
Kd (TrkB; SPR, ref [12],[35], read-out: Kd): 1.7 nM
